{
  "source": "paper PMC9549809",
  "about": "“In vivo behavior of [^64Cu]NOTA-terpyridine platinum, a novel chemo-radio-theranostic agent for imaging, and therapy of colorectal cancer” (Frontiers in Medicine, 2022)",
  "key": {"tumor": {"tested_on": "tumor", "design": "method as in PMID 24337603", "details": "cited from earlier work"}, "HCT116 cells": {"tested_on": "HCT116 cells", "design": "method as in PMID 34578470", "details": "cited from earlier work"}, "HCT116 tumor [1]": {"tested_on": "HCT116 tumor", "test": "Oxaliplatin in the same HCT116 mouse model (previous study)", "assay_type": "in vivo, nude mice"}, "plasma protein": {"tested_on": "plasma protein", "details": "24 h; cited from earlier work"}, "HCT116 tumor [2]": {"tested_on": "HCT116 tumor", "details": "cited from earlier work"}},
  "note": "Read-outs that look alike come from different tables or passages of the source.",
  "data": [
    {"compound": "CC(=O)[O-].CC(=O)[O-].[64Cu+2]", "note": "[^64Cu(OAc)2]", "values": [
      {"measurement": "tumor uptake", "setting": "tumor; 15 min post-injection", "result": "1.28 ± 0.13", "unit": "%ID/g"},
      {"measurement": "tumor uptake", "setting": "tumor; 2 h post-injection", "result": "2.76 ± 0.63", "unit": "%ID/g"},
      {"measurement": "tumor uptake", "setting": "tumor; 16 h", "result": "1.28 ± 0.07", "unit": "%ID/g"},
      {"measurement": "nuclear accumulation relative to ^64Cu-NOTA-C3-TP", "setting": "HCT116 cells", "result": "significantly lower"}
    ]},
    {"compound": "O=C1[O][Pt]2([NH][C@@H]3CCCC[C@H]3[NH]2)[O]C1=O", "note": "[oxaliplatin]", "values": [
      {"measurement": "times more platinum drug in the tumor than with [^64Cu]NOTA-C3-TP", "setting": "HCT116 tumor [1]; 48 h", "result": 333, "unit": "times"},
      {"measurement": "plasma concentration, times higher than [^64Cu]NOTA-C3-TP", "setting": "HCT116 tumor [1]; 48 h post-injection, injected dose 1,250 times higher", "result": "about 6 times"},
      {"measurement": "bound to plasma protein", "setting": "plasma protein", "result": 98, "unit": "%"},
      {"measurement": "quantity measured in the tumor", "setting": "HCT116 tumor [2]; 10 mg/kg (25 nmol/g mouse), 48 h post-injection", "result": 0.3, "unit": "nmol/g"},
      {"measurement": "quantity in tumor as % of the injected dose", "setting": "HCT116 tumor [2]; 10 mg/kg, 48 h post-injection", "result": 1.2, "unit": "%"},
      {"measurement": "concentration in the tumor", "setting": "HCT116 tumor [2]; 48 h post-injection", "result": "0.12 μg/g of tumor"},
      {"measurement": "EF, oxaliplatin plus 15 Gy external beam vs oxaliplatin alone (TGD)", "setting": "HCT116 tumor [2]; same mouse model, irradiated 48 h post-injection", "result": 5.18}
    ]}
  ]
}
